Values quoted from earlier work as cited in PMC3368153 (Nature chemical biology, 2012).

Key:
[1] = test system: α1 Y209A GABAAR; settings: versus wild type
[2] = test system: γ2 F77L GABAAR
[3] = test system: γ2 F77Y GABAAR; settings: versus wild type
[4] = test system: γ2 F77I GABAAR; settings: versus wild type
[5] = test system: α1 H101R mutation GABAAR
[6] = test system: α1 His101 replaced by glutamine, GABAAR; settings: versus wild type
[7] = test system: α1 H101C GABAAR; settings: versus wild type

Compound: CN1C(=O)CN=C(c2ccccc2)c2cc(Cl)ccc21 [diazepam]
- decrease in binding affinity (factor), α1 Y209A [1]: 40
- tolerance of point mutation γ2 F77L (affinity) [2]: tolerated well
- affinity loss (factor), γ2 F77Y [3]: 250
- loss of affinity (factor), γ2 F77I [4]: 4-5

Compound: CCOC(=O)c1ncn2c1CN(C)C(=O)c1cc(F)ccc1-2 [flumazenil]
- decrease in binding affinity (factor), α1 Y209A [1]: 41
- affinity in α1 H101R mutant [5]: tolerate this mutation
- tolerance of point mutation γ2 F77L (affinity) [2]: tolerated well
- loss of affinity (factor), γ2 F77I [4]: 2,000

Compound: CN1C(=O)CN=C(c2ccccc2F)c2cc([N+](=O)[O-])ccc21 [flunitrazepam]
- loss of affinity (factor), glutamine at α1 His101 [6]: 15
- affinity in α1 H101R mutant [5]: drastically reduced affinity
- loss of affinity (factor), cysteine at α1 His101 [7]: 200

Compound: Ro15-8670
- loss of affinity (factor), γ2 F77I [4]: 4-5

Compound: dichlorodiazepam
- affinity loss (factor), γ2 F77Y [3]: 700

Compound: monochlorodiazepam
- affinity loss (factor), γ2 F77Y [3]: 530
